Tested on: Rat hippocampal neurons
Test: Culture of hippocampal neurons on PLL-coated beads in media with mitotic inhibitor
Assay type: cell-based
Method: Borosilicate Glass Spheres (MO-SCI Specialty Products, Rolla, Mo.) were sterilized in an ethanol solution overnight, and dried under vacuum. Then the beads were incubated in a borate buffer solution for one hour, before being left in PLL solution overnight. Hippocampi were removed from embryonic day 18 (E18) rats and treated with trypsin for 20 min at 37° C., followed by washing and trituration. Dissociated cells were plated at 75,000 cells/cm^2 on poly-lysine-coated glass beads and cultured in neurobasal medium supplemented with 2 mM Glutamax, 2% FBS, and 2% B-27. Cells were transfected with Lipofectamine 2000 (Invitrogen) or they were infected with lenti virus after 5-15 days after dissociation and analyzed 2-14 days after infection.
Rat hippocampal neurons were selected as model mammalian brain neurons. Following dissection at a late embryonic stage (E18), or early postnatal stage (P4), the neurons were dissociated and cultured on beads coated with poly-L-lysine (PLL) to enhance cell adhesion and to support maturation.(13, 14) The neurons were grown on the beads using standard techniques developed for conventional 2D cultures (Pautot et al., 2008). […] However, a small number of supporting glial cells, which contribute to neuronal development by stimulating neuron growth and maturation, were also present. […]

Nc1ccn([C@@H]2O[C@H](CO)[C@@H](O)[C@@H]2O)c(=O)n1 [araC]
neuron outgrowth and branching (araC added to the culture media, no conditioned media): slowed
growth of neurons on the beads (araC combined with conditioned media from glial feeder cell cultures, more than 3 weeks): robust growth
